Results reported in ChEMBL document CHEMBL5614418, “Discovery of novel dihydropyrrolidone-thiadiazole compound crosstalk between the YycG/F two-component regulatory pathway and cell membrane homeostasis to combat methicillin-resistant Staphylococcus aureus” (Eur J Med Chem, 2024).
≈ marks a conversion by molar mass, not a printed value. Calls of active or inactive are those of the source. The calls are words filed in the database; no cut-off is given here.

Legend:
[1] = Cytotoxicity against human LX2 cells incubated for 24 hrs by CCK8 assay; type: toxicity, cell-based; conditions: LX-2 cells
[2] = system: Staphylococcus epidermidis; assay: Antibacterial activity against Staphylococcus epidermidis SE1457 by broth microdilution method; type: functional
Enterococcus faecalis = assay: Antibacterial activity against Enterococcus faecalis OG1RF by broth microdilution method; type: functional
Staphylococcus aureus [3] = assay: Antibacterial activity against methicillin sensitive Staphylococcus aureus SA113 by broth microdilution method; type: functional
[4] = Hemolytic activity against human erythrocytes measured after 1 hr; type: toxicity, cell-based, Erythrocyte
Enterococcus faecium = assay: Antibacterial activity against Enterococcus faecium EFM64 by broth microdilution method; type: functional
Staphylococcus aureus [5] = assay: Induction of resistance development in methicillin sensitive Staphylococcus aureus SA113 assessed as fold increase in MIC at 1/2 MIC incubated for 16 hrs after 20 serial passages; type: functional
[6] = system: Staphylococcus epidermidis; assay: Induction of resistance development in Staphylococcus epidermidis SE1457 assessed as fold increase in MIC at 1/2 MIC incubated for 16 hrs after 20 serial passages; type: functional
[7] = target: T1, Sensor protein kinase WalK (Staphylococcus aureus, UniProt Q9RDT3); assay: Inhibition of Staphylococcus aureus YycG expressed in Escherichia coli preincubated for 30 mins followed by ATP addition and measured after 30 mins by kinase-Glo luminescent assay
T1 sequence (Q9RDT3 whole entry): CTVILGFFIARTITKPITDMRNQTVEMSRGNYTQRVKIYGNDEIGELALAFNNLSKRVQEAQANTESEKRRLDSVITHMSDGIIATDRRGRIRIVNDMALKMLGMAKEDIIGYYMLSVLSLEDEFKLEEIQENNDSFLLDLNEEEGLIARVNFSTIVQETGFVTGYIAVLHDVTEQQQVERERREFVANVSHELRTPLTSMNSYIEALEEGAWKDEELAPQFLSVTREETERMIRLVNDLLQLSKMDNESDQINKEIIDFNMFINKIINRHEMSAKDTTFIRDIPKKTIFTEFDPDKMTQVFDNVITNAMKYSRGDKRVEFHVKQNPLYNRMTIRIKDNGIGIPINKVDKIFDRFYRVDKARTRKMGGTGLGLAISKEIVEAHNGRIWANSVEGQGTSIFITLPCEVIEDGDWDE

Staphylococcus aureus [8] = assay: Induction of matured biofilm eradication in methicillin resistant Staphylococcus aureus YUSA145 assessed as reduction in bacterial survival in biofilm at 8 times MIC incubated for 48 hrs by SYTO 9 staining based confocal fluorescence microscopic analysis; type: functional
[9] = system: Staphylococcus epidermidis; assay: Induction of matured biofilm eradication in Staphylococcus epidermidis SE1457 assessed as reduction in bacterial survival in biofilm at 8 times MIC incubated for 48 hrs by SYTO 9 staining based confocal fluorescence microscopic analysis; type: functional
Staphylococcus aureus [10] = assay: Bactericidal activity against Staphylococcus aureus USA300 assessed as planktonic cells killing by measuring log reduction in bacterial count at 8 times MIC measured after 24 hrs; type: functional, organism-based
Staphylococcus aureus [11] = assay: Antibacterial activity against methicillin resistant Staphylococcus aureus USA300 infected in BALB/c mouse wound model assessed as log reduction in wound bacterial load at 10 mg/kg, ip administered every 12 hrs for 3 times and measured after 48 hrs; type: functional
Staphylococcus aureus [12] = assay: Antibacterial activity against methicillin resistant Staphylococcus aureus USA300 by broth microdilution method; type: functional
[13] = system: Staphylococcus epidermidis; assay: Bactericidal activity against Staphylococcus epidermidis SE1457 assessed as planktonic cells killing by measuring log reduction in bacterial count at 8 times MIC measured after 24 hrs; type: functional, organism-based
[14] = system: Staphylococcus epidermidis; assay: Antibacterial activity against methicillin resistant Staphylococcus epidermidis SE1457 infected in BALB/c mouse wound model assessed as log reduction in wound bacterial load at 10 mg/kg, ip administered every 12 hrs for 3 times and measured after 48 hrs; type: functional
Staphylococcus aureus [15] = assay: Antibacterial activity against methicillin resistant Staphylococcus aureus USA300 infected in BALB/c mouse pneumonia model assessed as log reduction in lung bacterial count at 20 mg/kg, ip administered every 12 hrs for 3 times and measured after 48 hrs; type: functional
Staphylococcus aureus [16] = assay: Antibacterial activity against methicillin resistant Staphylococcus aureus USA300 infected in BALB/c mouse pneumonia model assessed as increase in mouse survival rate at 20 mg/kg, ip administered every 12 hrs for 3 times and measured after 48 hrs; type: functional, organism-based

Compound	CC50 at 24 h [1] [µM]	MIC [2] [µM]	MIC (Enterococcus faecalis) [µM]	MIC (Staphylococcus aureus [3]) [µM]	HC50 at 1 h [4] [µM]	MIC (Enterococcus faecium) [µM]	further results
O=C(C1=C(O)C(=O)N(c2nnc(SCc3ccccc3Cl)s2)C1c1ccc(O)cc1)c1cc2ccccc2o1 (stereo unspecified)	> 100	50 (≈ 28.8 µg/mL)	> 100	100 (≈ 57.6 µg/mL)	> 200	> 100	
CC(=O)NC[C@H]1CN(c2ccc(N3CCOCC3)c(F)c2)C(=O)O1							fold change (FC) (Staphylococcus aureus [5]): 4; fold change (FC) [6]: 4
COc1cc(C2C(C(=O)c3cc4ccccc4o3)=C(O)C(=O)N2c2nnc(SCc3ccccc3Cl)s2)ccc1O (stereo unspecified)	> 100	25 (≈ 15.2 µg/mL)	> 100	> 100	> 200	> 100	IC50 [7]: 46.1 µM
CCCCCCCCCC(=O)N[C@@H](Cc1c[nH]c2ccccc12)C(=O)N[C@H](CC(N)=O)C(=O)N[C@@H](CC(=O)O)C(=O)N[C@@H]1C(=O)NCC(=O)N[C@@H](CCCN)C(=O)N[C@@H](CC(=O)O)C(=O)N[C@H](C)C(=O)N[C@@H](CC(=O)O)C(=O)NCC(=O)N[C@H](CO)C(=O)N[C@@H]([C@H](C)CC(=O)O)C(=O)N[C@@H](CC(=O)c2ccccc2N)C(=O)O[C@@H]1C		2 (≈ 3.24 µg/mL)	2 (≈ 3.24 µg/mL)	2 (≈ 3.24 µg/mL)		2 (≈ 3.24 µg/mL)	Activity (Staphylococcus aureus [8]): <50%; Activity [9]: <50%; Activity (Staphylococcus aureus [10]): inactive; log(activity) (Staphylococcus aureus [11]): 1; MIC (Staphylococcus aureus [12]): 2 µg/mL (≈ 1.23 µM); Activity [13]: inactive; log(activity) [14]: 1
O=C(C1=C(O)C(=O)N(c2nnc(SCc3ccccc3)s2)C1c1ccccc1O)c1ccc(F)cc1 (stereo unspecified)	> 100	> 100	> 100	> 100	> 200	> 100	
O=C(C1=C(O)C(=O)N(c2nnc(SCc3ccccc3)s2)C1c1cccc(O)c1O)c1cc2ccccc2o1 (stereo unspecified)	> 100	50 (≈ 27.9 µg/mL)	25 (≈ 13.9 µg/mL)	50 (≈ 27.9 µg/mL)	> 200	25 (≈ 13.9 µg/mL)	
O=C(C1=C(O)C(=O)N(c2nnc(SCc3ccccc3)s2)C1c1ccccc1O)c1cc2ccccc2s1 (stereo unspecified)	> 100	> 100	> 100	> 100	> 200	> 100	
O=C(C1=C(O)C(=O)N(c2nnc(SCc3ccccc3)s2)C1c1ccccc1O)c1ccc(C(F)(F)F)cc1 (stereo unspecified)	> 100	> 100	> 100	> 100	> 200	> 100	
O=C(C1=C(O)C(=O)N(c2nnc(SCc3ccccc3Cl)s2)C1c1cccc(O)c1)c1cc2ccccc2o1 (stereo unspecified)	> 100	> 100	> 100	> 100	> 200	> 100	
O=C(C1=C(O)C(=O)N(c2nnc(SCc3ccccc3)s2)C1c1ccc(O)c(O)c1)c1cc2ccccc2o1 (stereo unspecified)	> 100	> 100	> 100	> 100	> 200	> 100	
COc1ccc(C(=O)C2=C(O)C(=O)N(c3nnc(SCc4ccccc4)s3)C2c2ccccc2O)cc1 (stereo unspecified)	> 100	> 100	> 100	> 100	> 200	> 100	
O=C(C1=C(O)C(=O)N(c2nnc(SCc3ccccc3Cl)s2)C1c1ccccc1)c1cc2ccccc2o1 (stereo unspecified)	> 100	> 100	> 100	> 100	> 200	> 100	
COc1ccc(O)c(C2C(C(=O)c3cc4ccccc4o3)=C(O)C(=O)N2c2nnc(SCc3ccccc3Cl)s2)c1 (stereo unspecified)	> 100	50 (≈ 30.3 µg/mL)	100 (≈ 60.6 µg/mL)	50 (≈ 30.3 µg/mL)	> 200	100 (≈ 60.6 µg/mL)	
COc1cc(C2C(C(=O)c3cc4ccccc4o3)=C(O)C(=O)N2c2nnc(SCc3ccccc3)s2)ccc1O (stereo unspecified)	> 100	> 100	> 100	> 100	> 200	> 100	
O=C(C1=C(O)C(=O)N(c2nnc(SCc3ccccc3)s2)C1c1ccc(O)cc1O)c1cc2ccccc2o1 (stereo unspecified)	> 100	> 100	> 100	> 100	> 200	> 100	
CN[C@H](CC(C)C)C(=O)N[C@H]1C(=O)N[C@@H](CC(N)=O)C(=O)N[C@H]2C(=O)N[C@H]3C(=O)N[C@H](C(=O)N[C@H](C(=O)O)c4cc(O)cc(O)c4-c4cc3ccc4O)[C@H](O)c3ccc(c(Cl)c3)Oc3cc2cc(c3O[C@@H]2O[C@H](CO)[C@@H](O)[C@H](O)[C@H]2O[C@H]2C[C@](C)(N)[C@H](O)[C@H](C)O2)Oc2ccc(cc2Cl)[C@H]1O [VANCOMYCIN]							log(activity) (Staphylococcus aureus [15]): 2; Activity (Staphylococcus aureus [16]): Active
O=C(C1=C(O)C(=O)N(c2nnc(SCc3ccccc3)s2)C1c1ccccc1O)c1ccc([N+](=O)[O-])cc1 (stereo unspecified)	> 100	> 100	> 100	> 100	> 200	> 100	
O=C(O)COc1ccc(C2C(C(=O)c3cc4ccccc4o3)=C(O)C(=O)N2c2nnc(SCc3ccccc3Cl)s2)cc1 (stereo unspecified)	> 100	> 100	> 100	> 100	> 200	> 100	
COC(=O)COc1ccc(C2C(C(=O)c3cc4ccccc4o3)=C(O)C(=O)N2c2nnc(SCc3ccccc3Cl)s2)cc1 (stereo unspecified)	> 100	> 100	> 100	> 100	> 200	> 100	
O=C(C1=C(O)C(=O)N(c2nnc(SCc3ccc(Cl)cc3)s2)C1c1ccccc1O)c1cc2ccccc2o1 (stereo unspecified)	> 100	25 (≈ 14.4 µg/mL)	50 (≈ 28.8 µg/mL)	25 (≈ 14.4 µg/mL)	> 200	50 (≈ 28.8 µg/mL)	
O=C(C1=C(O)C(=O)N(c2nnc(SCc3cccc(Cl)c3)s2)C1c1ccccc1O)c1cc2ccccc2o1 (stereo unspecified)	> 100	25 (≈ 14.4 µg/mL)	25 (≈ 14.4 µg/mL)	50 (≈ 28.8 µg/mL)	> 200	25 (≈ 14.4 µg/mL)	
O=C(C1=C(O)C(=O)N(c2nnc(SCc3ccccc3Cl)s2)C1c1ccc(O)c(Br)c1)c1cc2ccccc2o1 (stereo unspecified)	> 100	> 100	> 100	> 100	> 200	> 100	
O=C(C1=C(O)C(=O)N(c2nnc(SCc3ccccc3Cl)s2)C1c1ccccc1O)c1cc2ccccc2s1 (stereo unspecified)	> 100	> 100	> 100	> 100	> 200	> 100	
